In US20020160968A1, “Inhibitors of cellular niacinamide mononucleotide formation and their use in cancer therapy” (Klinge Pharma GmbH, priority 1999, published 2002):

Legend:
[1] = molecular target: T1, niacinamide phosphoribosyltransferase (NAPRT, EC 2.4.2.12) (Homo sapiens, UniProt P43490); assay: Niacinamide phosphoribosyltransferase (NAPRT) assay, protamine-treated cytoplasmic fraction of K-562 cells; format: biochemical; conditions: for NAM: niacinamide mononucleotide formed, controls 79.1 and 71.8; for NA: niacinamide remaining, controls 389.7 and 397.0; for NA [%] / NAM [%]: portion of total radioactivity
T1 construct: protamine-treated cytoplasmic fraction of K-562 cells as the enzyme source; endogenous in cells; host or cells: K-562 (ATCC CCL 243), freeze-thaw lysate, 23,000 x g supernatant treated with protamine sulfate
T1 sequence (P43490 whole entry): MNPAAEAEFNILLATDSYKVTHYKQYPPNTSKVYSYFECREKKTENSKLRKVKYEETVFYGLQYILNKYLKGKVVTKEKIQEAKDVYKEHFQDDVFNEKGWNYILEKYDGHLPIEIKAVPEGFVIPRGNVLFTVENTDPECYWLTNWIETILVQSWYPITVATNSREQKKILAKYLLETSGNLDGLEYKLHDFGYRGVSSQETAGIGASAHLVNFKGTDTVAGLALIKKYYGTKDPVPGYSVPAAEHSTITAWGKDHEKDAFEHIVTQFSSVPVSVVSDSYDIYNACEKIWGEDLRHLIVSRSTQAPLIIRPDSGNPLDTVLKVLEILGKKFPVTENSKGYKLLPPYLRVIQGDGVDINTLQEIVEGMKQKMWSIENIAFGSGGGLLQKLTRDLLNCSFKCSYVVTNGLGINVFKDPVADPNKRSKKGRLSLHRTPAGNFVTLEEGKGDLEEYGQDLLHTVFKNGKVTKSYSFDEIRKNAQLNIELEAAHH
Experimental: The effect of the compounds on the enzyme niacinamide phosphoribosyltransferase (NAPRT, EC 2.4.2.12) was investigated using for example protamine-treated cytoplasmic fraction of K-562 cells as the enzyme source according to the NAPRT assay described in the experimental part below. The investigated compounds were used in concentrations of 10 μM, except for K22387 and K22133 where the concentration was 1 μM.
The assay is based on the amount of radioactive incorporation from ^14C-labelled niacinamide into niacinamide mononucleotide (NAM). NAM is subsequently separated from niacinamide (NA) by thin-layer chromatography and its quantity is determined by autoradiography.
Niacinamide Phosphoribosyltransferase (NAPRT) Assay
The human cell line K-562 (chronic myelogenous leukaemia) is obtained from the American Type Culture Collection (ATCC CCL 243), Rockville, Md., USA. The K-562 cells are cultured in RPMI (Sigma, Deisenhofen, Germany, Product No.: R6504) containing 10% foetal calf serum (PAN Systems GmbH, Aidenbach, Germany), 2.2 g/l NaHCO3 (Merck, Darmstadt, Germany), 50,000 IU/l penicillin and 50 mg/l streptomycin (Sigma).
The K-562 cells are grown in RPMI supplemented with 10% FCS at 37° C. and 100% humidity in a 5% CO2 atmosphere up to a density of 2×10^6 cells per ml. Under these conditions, the cells grow logarithmically with a generation time of 24 hours. The cells are harvested by aspiration and centrifugation (250×g, 10 min, RT). Thereafter, the cells are washed at least 3 times by repeated centrifugation (250×g, 10 min, RT) and resuspension in CMF-PBS. After counting the cell suspension in a haematocytometer, the cells are spun into a tight pellet (390×g, […], RT) and the supernatant is carefully drawn off with a Pasteur pipette. The cells are then vortexed into suspension in sufficient lysis buffer to give a final concentration of 3×10^7 cells per ml. The suspension is frozen at −80° C. for at least one day and thawed slowly at room temperature to break up the cells. The breakage is usually greater than 95%, as determined by trypan blue exclusion. Following centrifugation at 23,000×g for 90 min at 0° C., the clarified supernatant is recovered on ice and 70 μl of 1% protamine sulfate is added per ml of supernatant. After 15 min on ice, the cloudy suspension is centrifuged a further 30 min at 23,000×g and 0° C. The final supernatant is stored in small aliquots at […] This supernatant contains about 950 to 1440 μg protein per ml. 120 to 140 μg protein per sample is used in the NAPRT assay (total assay volume: 0.5 ml).
The niacinamide phosphoribosyltransferase activity is determined in a reaction solution of 0.5 ml consisting of 5 mM MgCl2, 2 mM ATP, 0.5 mM PRPP, and [^14C]niacinamide (10^−5 M to 10^−7 M) in 50 mM Tris buffer pH 8.8 (final concentrations in the assay). The reaction is started by adding 100 to 120 μl cell extract. After incubation for 1 hour at 37° C., the enzyme reaction is stopped by adding cold niacinamide (50 μl of a 100 mM niacinamide solution per 0.5 ml reaction mixture) and by heating on a heating block (2 min, 105° C.). The precipitate is removed by centrifugation (2,500×g, 10 min, 4° C.) and the supernatant is collected into a […] polypropylene vial with screw cap and stored at −20° C. until further analysis. A 10 μl aliquot is taken from the supernatant to determine the total amount of radioactivity.
The ^14C-labelled components of the reaction mixture are separated and identified using thin-layer chromatography (TLC). 5 to 7.5 μl of each sample is transferred to a cellulose TLC foil using an automated sample applicator. The cellulose foil is developed using 1 M NH4 acetate:ethanol (3:7) as solvent. The chromatogram is run with added non-radioactive standards of NAD, NADP, NAM and niacinamide, and the spots were identified by UV absorption (RF values see Table 7). For autoradiography, the chromatogram is exposed to an imaging plate BAS-IIIs in a hypercassette for at least two days. […]

Hep G2 cells = assay: Nicotinamide Reversibility Assay / cell growth inhibition of Hep G2 cells (SRB, six days); format: cell-based, human; conditions: Homo sapiens, HepG2, 144 h; Hep G2; six days of compound incubation; SRB; read-out: Cell growth inhibition IC50-values [μM] Hep G2
Experimental: Nicotinamide Reversibility Assay
Hep G2 cells derived from a human liver carcinoma were plated at a density of 20,000 cells/ml in 12-well plastic dishes. Cultivation occurred in Richters IMEM-ZO nutrient medium with 5% fetal calf serum (FCS) in a tissue culture incubator with a gas mixture of 5% CO2 and 95% air at a temperature of 37° C. One day after plating, the culture medium was aspirated from the cells and replaced by fresh medium which contained the respective concentrations of the test compounds and where applicable of the nicotinamide. For the individual concentrations and the controls without test compounds, three-fold batches were done for each. Three days after the beginning of treatment, the medium was again renewed with the test compounds and where applicable the nicotinamide. After six days of compound incubation, the test was ended and the protein amount in the individual wells was determined with the sulforhodamin-B-method (according. to P. Skehan et al.: New Colorimetric Cytotoxicity Assay for Anticancer-Drug Screening. J. Natl. Cancer Inst. 82: 1107-1112, 1990). The IC50-values were taken from the dose-response curves and given as a comparative measurement for the activity of the test compounds.

HepG2 cells = assay: Cell growth under high-density conditions (SRB assay), delayed cell death (DCD); format: cell-based, human; conditions: Homo sapiens, high density HepG2 cultures
[2] = minimum concentration which, despite initial growth, induced cell death below the number of initially seeded cells, Table 2
[3] = compound 10 μM, controls 16.88 and 15.32
[4] = compound 10 μM, controls 83.12 and 84.68

Compound	NAM ([1]; compound 1 μM)	NA ([1]; compound 1 μM)	NA [%] ([1]; compound 1 μM)	NAM [%] ([1]; compound 1 μM)	IC50 (Hep G2 cells)	minimal effective concentration (HepG2 cells; Table 5)	minimal effective concentration (HepG2 cells; [2])	NAM ([1]; compound 10 μM)	NA ([1]; compound 10 μM)	NAM [%] [1, 3]	NA [%] [1, 4]
O=C(/C=C/c1cccnc1)NCCCCCCCC(c1ccccc1)c1ccccc1 [Compound K22133, N-(8,8-diphenyl-octyl)-3-pyrid-3-yl-acrylamide]	0.0 pmol/h	468.8 pmol/h	100.00%	0.00%	0.02 µM	0.03 µM	0.03 µM	–	–	–	–
O=C(NCCCCCCNC(=O)NCc1cccnc1)NCCC(c1ccccc1)c1ccccc1 [Compound K22158, 1-(3,3-diphenylpropyl)-3-[6-(3-pyridine-3-yl-methylureido)-hexyl]-urea]	–	–	–	–	0.1 µM	1 µM	1 µM	0.0 pmol/h	468.8 pmol/h	0.00%	100.00%
O=C(CCc1cccnc1)NCCCCC1CCN(CCCCC2CCN(C(c3ccccc3)c3ccccc3)CC2)CC1 [Compound K22316, N-(4-(1-[4-{1-benzhydryl-piperidine-4-yl)-butyl]-piperidine-4-yl}-butyl)-3-pyridine-3-yl-propanoic acid amide]	–	–	–	–	0.9 µM	1 µM	1 µM	0.0 pmol/h	468.8 pmol/h	0.00%	100.00%
